Literature values as cited in US20110111022A1, “PHARMACEUTICAL FORMULATION” (priority 2008, published 2011).

Key:
[1] = concurrent administration of aliskiren and irbesartan
[2] = target: hepatic cytochrome P450 3A4 (Homo sapiens, UniProt P08684)
Sequence of hepatic cytochrome P450 3A4 (P08684 whole entry): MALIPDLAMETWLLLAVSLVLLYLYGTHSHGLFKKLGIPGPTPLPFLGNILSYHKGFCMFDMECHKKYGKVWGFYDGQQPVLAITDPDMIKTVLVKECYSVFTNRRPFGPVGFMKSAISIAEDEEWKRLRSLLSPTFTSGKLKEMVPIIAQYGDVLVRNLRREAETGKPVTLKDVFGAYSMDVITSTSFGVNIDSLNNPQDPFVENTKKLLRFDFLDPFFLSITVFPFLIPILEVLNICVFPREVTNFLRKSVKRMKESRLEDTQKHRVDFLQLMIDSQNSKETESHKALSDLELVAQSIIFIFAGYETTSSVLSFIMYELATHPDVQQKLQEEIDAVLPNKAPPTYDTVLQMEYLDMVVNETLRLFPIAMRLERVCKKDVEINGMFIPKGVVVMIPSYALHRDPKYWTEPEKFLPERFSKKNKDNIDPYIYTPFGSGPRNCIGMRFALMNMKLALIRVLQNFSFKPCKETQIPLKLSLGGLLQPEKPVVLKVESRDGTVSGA

decrease in blood aliskiren level [1]: 50%
solubility in water: easily soluble in water
Compound: COCCCOc1cc(C[C@@H](C[C@H](N)[C@@H](O)C[C@H](C(=O)NCC(C)(C)C(N)=O)C(C)C)C(C)C)ccc1OC [aliskiren, 2(S),4(S),5(S),7(S)—N-(3-amino-2,2-dimethyl-3-oxopropyl)-2,7-di(1-methylethyl)-4-hydroxy-5-amino-8-[4-methoxy-3-(3-methoxy-propoxy)phenyl]-octanamide]
metabolism in in vitro experiments [2]: metabolized by hepatic cytochrome P450 3A4
